The source of these data is PMC7904559, “QSAR and molecular docking for the search of AOX inhibitors: a rational drug discovery approach” (Journal of Computer-Aided Molecular Design, 2020).

Each structure is given as a SMILES string. Read-outs that look alike come from different tables or passages of the source.

In data set [1] the target is alternative oxidase of Trypanosoma brucei (TAO). As to conditions: cited from earlier work; for pIC50 Exp.: training set, calculated as -log IC50.
Data set [2] deals with trypanosome alternative oxidase (TAO) (Trypanosoma brucei brucei, UniProt Q26710). Nature of the data set: biochemical.
Data set [3] relates to cytochrome bc1 complex. The following applies: cited from earlier work.
On the set-up of data set [4]: method as in PMID 30693533. The following applies: cited from earlier work.
In data set [5] the test system is T. vivax. The following applies: T. vivax-infected mouse; single intramuscular dose of 50 mg/kg or 6 mg/kg on 4 consecutive days; cited from earlier work.
Setting [6] is: read-out: IC50 (50% inhibitory concentration), against TAO.
Setting [7] is: wild type TAO, Table 2, read-out: IC50.
Setting [8] is: IC50, recombinant AOX expressed in E. coli membranes, mean ± SD of n = 3 isolations, 37 °C, pH 7.4, 1.25 mM NADH, 1 mM KCN.
[9] abbreviates: pIC50 Exp, external validation set, -log IC50 of values measured by respirometry.

trypanosome alternative oxidase (TAO), sequence (Q26710 whole entry): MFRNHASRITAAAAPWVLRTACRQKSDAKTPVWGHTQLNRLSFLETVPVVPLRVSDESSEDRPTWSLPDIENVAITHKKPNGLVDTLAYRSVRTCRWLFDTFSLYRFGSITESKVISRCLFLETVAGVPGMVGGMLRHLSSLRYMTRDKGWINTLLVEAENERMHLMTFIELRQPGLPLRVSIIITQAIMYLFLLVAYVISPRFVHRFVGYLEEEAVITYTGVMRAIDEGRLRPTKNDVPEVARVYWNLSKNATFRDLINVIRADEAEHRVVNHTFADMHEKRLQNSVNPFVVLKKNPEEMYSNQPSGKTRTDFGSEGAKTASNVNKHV

Take `CC(=O)OC(C)/C(C)=C/CC/C(C)=C/Cc1c(O)c(Cl)c(C)c(C=O)c1O` (stereo not shown) [Compound 3]: the IC50 in data set [1] (setting [6]) is 1.4 nM. For the same compound, the “pIC50 Exp.” value in data set [1] was 8.854.

As for `CC(=O)c1c(C)c(Cl)c(O)c(C/C=C(\C)CCC=C(C)C)c1O` [Compound 16], in data set [1], the “pIC50 Exp.” value is listed as 9.824. Further, in data set [1] (setting [7]), the IC50 was 0.15 nM.

With `C/C(=C\Cc1c(O)c(Cl)c(C)c(C=O)c1O)CC/C=C(\C)COC(=O)C(C)(C)C` [Compound 1], in data set [1] (setting [6]), the IC50 was 0.4 nM. Moreover, the “pIC50 Exp.” value in data set [1] was 9.398.

In the case of `CC(=O)c1c(C)c(Cl)c(O)c(C/C=C(\C)CC/C=C(\C)COC(=O)C(C)(C)C)c1O` [Compound 15], the IC50 in data set [1] (setting [6]) is 0.7 nM. In data set [1], the “pIC50 Exp.” value is reported as 9.155.

Turning to `CCCOC(=O)c1cc(O)c(O)c(O)c1` [Propyl gallate], the IC50 in data set [1] (setting [7]) is 200 nM; in data set [2] (setting [8]), 1400 nM; in data set [2] (external validation set, -log IC50 of values measured by respirometry, read-out: pIC50 Exp (converted)), 1400 nM.

For the compound `CCCCCCCCc1c(O)c(Cl)c(C)c([N+](=O)[O-])c1O` [Compound 20], the IC50 in data set [1] (setting [6]) is 0.45 nM. Further, in data set [1], the “pIC50 Exp.” value is 9.347.

In the case of `CC(C)=CCC/C(C)=C/Cc1c(O)cc(C)c(C=O)c1O` [Compound 27], the IC50 in data set [1] (setting [6]) was 0.5 nM. In data set [1], the “pIC50 Exp.” value was 9.301.

`CC(C)=CCC/C(C)=C/CC/C(C)=C/Cc1c(O)c2ccccc2oc1=O` [Ferulenol] showed an IC50 in data set [2] (setting [9]) of 53.1 nM.

For `CC(C)=CCC/C(C)=C/Cc1c(O)c(Cl)c(C)c(C=O)c1O` [Colletochlorin B], in data set [1] (setting [7]), the IC50 was 0.2 nM.

As to `Cc1c(Cl)c(O)c(CCCCCCCC(=O)O)c(O)c1C=O` [Compound 12], the IC50 in data set [1] (setting [6]) is 40 nM. For the same compound, the “pIC50 Exp.” value in data set [1] is 7.398.

As to `COC(=O)c1c(C)c(Cl)c(O)c(C/C=C(\C)CCC=C(C)C)c1O` [Compound 18], the IC50 in data set [1] (setting [6]) is 45 nM. The “pIC50 Exp.” value in data set [1] is 7.347.

Consider `CC(/C=C/[C@@]1(C)[C@H](C)CCC(=O)[C@@H]1C)=C\Cc1c(O)c(Cl)c(C)c(C=O)c1O` [Ascochlorin], for which the “inhibition of cytochrome bc1 complex” value in data set [3] is “potent inhibitor”. Moreover, the IC50 is around 7 nM in data set [2] (setting [8]) and 7.4 nM in data set [2] (setting [9]).

In data set [2] (setting [9]), `CC(C)=CCc1c(O)c(Cl)c(C)c(C=O)c1O` [Colletochlorin D] gave an IC50 of 33 nM.

As to `COc1c(Cl)c(C)c(C=O)c(O)c1C/C=C(\C)CC/C=C(\C)C1CC(=O)C(C)(C)O1` (stereo not shown) [Compound 29], the IC50 in data set [1] (setting [6]) is 4 nM. Moreover, the “pIC50 Exp.” value in data set [1] is recorded as 8.398.

Take `CC(C)=CCC/C(C)=C/Cc1c(O)c(Cl)cc(C=O)c1O` [Compound 26]: in data set [1] (setting [6]), the IC50 is 0.23 nM. In addition, in data set [1], the “pIC50 Exp.” value is reported as 9.638.

For the compound `CC(=O)c1c(C)c(Cl)c(O)c(C/C=C(\C)CC/C=C(\C)C2CC(=O)C(C)(C)O2)c1O` (stereo not shown) [Compound 14], the IC50 in data set [1] (setting [6]) was 2.5 nM. Also, the “pIC50 Exp.” value in data set [1] is given as 8.602.

Take `CC(C)=CCC/C(C)=C/Cc1c(O)ccc(C=O)c1O` [Compound 28]: the IC50 in data set [1] (setting [6]) is 38 nM. For the same compound, the “pIC50 Exp.” value in data set [1] is listed as 7.420.

In the case of `Cc1c(Cl)c(O)c(CCCCCCCCO)c(O)c1C=O` [Compound 11], in data set [1] (setting [6]), the IC50 is 6 nM. The “pIC50 Exp.” value in data set [1] was 8.222.

On to `C/C=C/c1c(O)c(Cl)c(C)c(C=O)c1O` [Compound 7a], for which, in data set [1], the “pIC50 Exp.” value is 7.000.

`CCCCCCCCOC(=O)c1cc(O)c(O)c(O)c1` [Octyl gallate]: the IC50 in data set [2] (setting [9]) is 230 nM.

As to `C/C(=C\Cc1c(O)c(Cl)c(C)c(C=O)c1O)CC/C=C(\C)[C@@H]1CC(=O)C(C)(C)O1` [Ascofuranone], in data set [3] (mammalian, concluded from survival of mice following AF treatment), the “inhibition of mammalian cytochrome bc1 complex” value is “not an effective inhibitor”. Moreover, in data set [4], the blood clearance result is given as “rapid” and the oral bioavailability result is listed as “low”. Further, the treatment outcome in data set [5] is given as “successful treatment”.

Consider `C/C(=C\CC/C(C)=C/Cc1c(O)c(Cl)c(C)c(C=O)c1O)CO` [Compound 2], for which the IC50 in data set [1] (setting [6]) is 1.2 nM. Further, the “pIC50 Exp.” value in data set [1] is given as 8.921.

For the compound `C/C(=C\Cc1c(O)c(Cl)cc(C=O)c1O)CC/C=C(\C)C1CC(=O)C(C)(C)O1` (stereo not shown) [Compound 25], in data set [1] (setting [6]), the IC50 was 0.45 nM. Moreover, the “pIC50 Exp.” value in data set [1] is 9.347.

Take `C/C(=C\Cc1c(O)c(Cl)c(C)c(/C=N\O)c1O)CC/C=C(\C)C1CC(=O)C(C)(C)O1` (stereo not shown) [Compound 17]: the IC50 in data set [1] (setting [6]) is 28 nM. In data set [1], the “pIC50 Exp.” value is 7.553.

For `CCC/C=C/c1c(O)c(Cl)c(C)c(C=O)c1O` [Compound 7b], in data set [1] (setting [6]), the IC50 was 3.8 nM. Besides, in data set [1], the “pIC50 Exp.” value is given as 8.420.
